Measured values published in ChEMBL document CHEMBL5705899 (Biochem J, 2014).
pIC50: −log10 of the molar value. Active and inactive are the calls of the source. No cut-off for these calls is given here.

Experiments:
[1] = target: Interleukin-1 receptor-associated kinase 4 (Homo sapiens) (UniProt Q9NWZ3); assay: Inhibition of recombinant human N-terminal GST-tagged IRAK4 (140 to 460 residues) expressed in Escherichia coli assessed as remaining activity at 1 uM using MBP as substrate incubated for 30 mins in presence of [gamma-33P]ATP by filter binding method relative to control
[2] = target: Aurora kinase A (Homo sapiens) (UniProt O14965); assay: Inhibition of recombinant human N-terminal Hi6-tagged Aurora A (2 to 403 residues) expressed in Escherichia coli assessed as remaining activity at 1 uM using LRRLSLGLRRLSLGLRRLSLGLRRLSLG as substrate incubated for 30 mins in presence of [gamma-33P]ATP by filter binding method relative to control
[3] = target: LKB1-STRAD-MO25 complex (Homo sapiens) (UniProt Q15831+Q7RTN6+Q9Y376); assay: Inhibition of recombinant human N-terminal His6-tagged LKB1 (1 to 433 residues)/MO25 (1 to 341 residues)/STRAD (1 to 431 residues) expressed in baculovirus infected Sf21 cells assessed as remaining activity at 1 uM using LSNLYHQGKFLQTFCGSPLYRRR as substrate incubated for 30 mins in presence of [gamma-33P]ATP by filter binding method relative to control
[4] = target: Serine/threonine-protein kinase Nek2 (Homo sapiens) (UniProt P51955); assay: Inhibition of recombinant human N-terminal His6-tagged NEK2A (1 to 445 residues) expressed in baculovirus infected Sf21 cells assessed as remaining activity at 1 uM using RFRRSRRMI as substrate incubated for 30 mins in presence of [gamma-33P]ATP by filter binding method relative to control
[5] = target: Death-associated protein kinase 1 (Homo sapiens) (UniProt P53355); assay: Inhibition of recombinant human N-terminal GST-tagged DAPK1 (1 to 363 residues) expressed in Escherichia coli assessed as remaining activity at 1 uM using KKLNRTLSFAEPG as substrate incubated for 30 mins in presence of [gamma-33P]ATP by filter binding method relative to control
[6] = target: Tyrosine-protein kinase Fes/Fps (Homo sapiens) (UniProt P07332); assay: Inhibition of human FES at 1 uM using polyEY as substrate in presence of 33P-ATP by ProQinase assay
[7] = target: BDNF/NT-3 growth factors receptor (Homo sapiens) (UniProt Q16620); assay: Inhibition of human TRKB at 1 uM using polyEY as substrate in presence of 33P-ATP by ProQinase assay
[8] = target: Tyrosine-protein kinase CSK (Homo sapiens) (UniProt P41240); assay: Inhibition of human CSK at 1 uM using polyEY as substrate in presence of 33P-ATP by ProQinase assay
[9] = target: Tyrosine-protein kinase receptor UFO (Homo sapiens) (UniProt P30530); assay: Inhibition of human AXL at 1 uM using polyEy as substrate in presence of 33P-ATP by ProQinase assay
[10] = target: Insulin receptor (Homo sapiens) (UniProt P06213); assay: Inhibition of human INSR at 1 uM using poly(Ala,Glu,Lys,Tyr) as substrate in presence of 33P-ATP by ProQinase assay
[11] = target: Muscle, skeletal receptor tyrosine-protein kinase (Homo sapiens) (UniProt O15146); assay: Inhibition of human MUSK at 1 uM using poly(Ala,Glu,Lys,Tyr) as substrate in presence of 33P-ATP by ProQinase assay
[12] = target: MAP kinase-activated protein kinase 3 (Homo sapiens) (UniProt Q16644); assay: Inhibition of human MAPKAPK3 at 1 uM using bio-4xCHKT as substrate in presence of 33P-ATP by ProQinase assay
[13] = target: Tyrosine-protein kinase SYK (Homo sapiens) (UniProt P43405); assay: Inhibition of human SYK (1 to 635 residues) at 1 uM using polyEY as substrate in presence of 33P-ATP by ProQinase assay
[14] = target: Serine/threonine-protein kinase BRSK1 (Homo sapiens) (UniProt Q8TDC3); assay: Inhibition of human BRSK1 at 1 uM using RBER-CHKtide as substrate in presence of 33P-ATP by ProQinase assay
[15] = target: CDK9/cyclin T1 (Homo sapiens) (UniProt O60563+P50750); assay: Inhibition of human CDK9/CyclinT1 at 1 uM using RBER-CHKtide as substrate in presence of 33P-ATP by ProQinase assay; format: protein-complex assay
[16] = target: Mitogen-activated protein kinase kinase kinase 14 (Homo sapiens) (UniProt Q99558); assay: Inhibition of human NIK at 1 uM using RBER-CHKtide as substrate in presence of 33P-ATP by ProQinase assay
[17] = target: Inhibitor of nuclear factor kappa-B kinase subunit beta (Homo sapiens) (UniProt O14920); assay: Inhibition of human IKKbeta at 1 uM using RBER-CHKtide as substrate in presence of 33P-ATP by ProQinase assay
[18] = target: RAC-beta serine/threonine-protein kinase (Homo sapiens) (UniProt P31751); assay: Inhibition of human AKT2 at 1 uM using RBER-GSK3 as substrate in presence of 33P-ATP by ProQinase assay
[19] = target: Protein-tyrosine kinase 2-beta (Homo sapiens) (UniProt Q14289); assay: Inhibition of human PYK2 at 1 uM using polyEY as substrate in presence of 33P-ATP by ProQinase assay
[20] = target: Serine/threonine-protein kinase mTOR (Homo sapiens) (UniProt P42345); assay: Inhibition of human mTOR at 1 uM using casein as substrate in presence of 33P-ATP by ProQinase assay
[21] = target: Serine/threonine-protein kinase Sgk1 (Homo sapiens) (UniProt O00141); assay: Inhibition of human SGK1 at 1 uM using RBER-GSK3 as substrate in presence of 33P-ATP by ProQinase assay
[22] = target: Dual serine/threonine and tyrosine protein kinase (Homo sapiens) (UniProt Q6XUX3); assay: Inhibition of human RIPK5 at 1 uM using RBER-CHKtide as substrate in presence of 33P-ATP by ProQinase assay
[23] = target: Mitogen-activated protein kinase kinase kinase 2 (Homo sapiens) (UniProt Q9Y2U5); assay: Inhibition of human MEKK2 at 1 uM using casein as substrate in presence of 33P-ATP by ProQinase assay
[24] = target: Serine/threonine-protein kinase haspin (Homo sapiens) (UniProt Q8TF76); assay: Inhibition of human GSG2 at 1 uM using histon H3 as substrate in presence of 33P-ATP by ProQinase assay
[25] = target: Serine/threonine-protein kinase 16 (Homo sapiens) (UniProt O75716); assay: Inhibition of human TSF1 at 1 uM using casein as substrate in presence of 33P-ATP by ProQinase assay
[26] = target: Phosphatidylinositol 4-kinase beta (Homo sapiens, UniProt Q9UBF8); assay: Inhibition of human PI4KB using PI as substrate by ADP-Glo assay
[27] = target: PI3-kinase p110-alpha/p85-alpha (Homo sapiens, UniProt P42336); assay: Inhibition of human PIK3CA/PIK3R1 using PIP2/PS as substrate by ADP-Glo assay; format: protein-complex assay

Sequence of MAP kinase-activated protein kinase 3 (Homo sapiens) (Q16644 whole entry, looked up, the tested form may be a part): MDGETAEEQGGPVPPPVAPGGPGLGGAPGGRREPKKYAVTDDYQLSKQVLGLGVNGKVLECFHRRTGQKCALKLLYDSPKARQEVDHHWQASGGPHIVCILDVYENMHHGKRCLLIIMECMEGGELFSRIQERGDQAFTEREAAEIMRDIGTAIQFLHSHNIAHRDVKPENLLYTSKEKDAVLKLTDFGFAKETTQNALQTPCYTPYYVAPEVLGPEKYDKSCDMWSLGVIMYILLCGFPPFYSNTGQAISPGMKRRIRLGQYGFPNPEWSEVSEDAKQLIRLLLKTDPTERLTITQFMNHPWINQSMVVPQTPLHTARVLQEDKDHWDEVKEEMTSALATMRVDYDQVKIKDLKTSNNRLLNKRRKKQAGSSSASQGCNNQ
Sequence of Dual serine/threonine and tyrosine protein kinase (Homo sapiens) (Q6XUX3 whole entry): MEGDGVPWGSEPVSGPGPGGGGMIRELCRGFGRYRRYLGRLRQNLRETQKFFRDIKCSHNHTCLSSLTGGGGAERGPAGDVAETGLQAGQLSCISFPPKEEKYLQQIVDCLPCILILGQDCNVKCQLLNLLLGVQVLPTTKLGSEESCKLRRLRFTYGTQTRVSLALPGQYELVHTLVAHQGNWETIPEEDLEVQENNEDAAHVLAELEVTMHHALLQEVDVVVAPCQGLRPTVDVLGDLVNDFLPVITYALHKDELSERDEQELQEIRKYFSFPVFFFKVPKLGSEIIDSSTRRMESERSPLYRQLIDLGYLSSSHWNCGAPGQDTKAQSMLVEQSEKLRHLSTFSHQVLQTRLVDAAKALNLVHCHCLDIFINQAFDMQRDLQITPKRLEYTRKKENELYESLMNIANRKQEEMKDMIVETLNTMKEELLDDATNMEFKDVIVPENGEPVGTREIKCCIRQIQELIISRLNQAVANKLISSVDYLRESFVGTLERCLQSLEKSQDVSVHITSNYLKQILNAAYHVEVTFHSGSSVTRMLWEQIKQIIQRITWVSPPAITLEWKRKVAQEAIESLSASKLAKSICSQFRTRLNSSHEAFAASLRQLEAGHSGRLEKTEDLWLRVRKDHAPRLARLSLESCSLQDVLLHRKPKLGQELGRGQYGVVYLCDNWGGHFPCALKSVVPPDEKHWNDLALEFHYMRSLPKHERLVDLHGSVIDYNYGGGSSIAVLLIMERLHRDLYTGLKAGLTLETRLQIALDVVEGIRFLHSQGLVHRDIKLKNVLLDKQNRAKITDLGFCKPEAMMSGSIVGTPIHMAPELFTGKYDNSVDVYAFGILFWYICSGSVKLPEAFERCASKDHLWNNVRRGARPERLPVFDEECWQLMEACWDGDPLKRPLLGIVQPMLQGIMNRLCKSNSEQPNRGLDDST
Sequence of Tyrosine-protein kinase receptor UFO (Homo sapiens) (P30530 whole entry): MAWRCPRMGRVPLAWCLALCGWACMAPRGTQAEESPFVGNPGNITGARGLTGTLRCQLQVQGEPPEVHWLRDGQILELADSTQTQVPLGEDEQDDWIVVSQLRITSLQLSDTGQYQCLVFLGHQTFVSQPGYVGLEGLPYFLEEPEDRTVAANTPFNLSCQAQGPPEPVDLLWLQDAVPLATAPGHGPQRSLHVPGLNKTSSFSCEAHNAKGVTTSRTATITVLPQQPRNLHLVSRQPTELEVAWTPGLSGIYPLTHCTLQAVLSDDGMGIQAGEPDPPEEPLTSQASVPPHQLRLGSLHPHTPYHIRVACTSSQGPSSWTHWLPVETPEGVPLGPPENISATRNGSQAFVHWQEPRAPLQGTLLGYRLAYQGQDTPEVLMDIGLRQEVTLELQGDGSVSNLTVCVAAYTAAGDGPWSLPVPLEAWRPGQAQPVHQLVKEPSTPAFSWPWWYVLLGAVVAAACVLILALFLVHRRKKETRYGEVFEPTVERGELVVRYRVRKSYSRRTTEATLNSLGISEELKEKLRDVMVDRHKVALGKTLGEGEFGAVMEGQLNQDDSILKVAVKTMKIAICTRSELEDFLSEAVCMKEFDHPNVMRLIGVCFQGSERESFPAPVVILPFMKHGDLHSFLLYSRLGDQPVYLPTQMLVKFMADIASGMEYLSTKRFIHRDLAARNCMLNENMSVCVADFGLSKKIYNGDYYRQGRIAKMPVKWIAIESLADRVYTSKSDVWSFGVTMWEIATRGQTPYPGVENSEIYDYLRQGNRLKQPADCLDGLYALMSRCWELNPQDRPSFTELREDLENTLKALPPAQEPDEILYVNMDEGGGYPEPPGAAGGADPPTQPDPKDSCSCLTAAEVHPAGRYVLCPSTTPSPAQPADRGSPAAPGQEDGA
Sequence of Death-associated protein kinase 1 (Homo sapiens) (P53355 whole entry, looked up, the tested form may be a part): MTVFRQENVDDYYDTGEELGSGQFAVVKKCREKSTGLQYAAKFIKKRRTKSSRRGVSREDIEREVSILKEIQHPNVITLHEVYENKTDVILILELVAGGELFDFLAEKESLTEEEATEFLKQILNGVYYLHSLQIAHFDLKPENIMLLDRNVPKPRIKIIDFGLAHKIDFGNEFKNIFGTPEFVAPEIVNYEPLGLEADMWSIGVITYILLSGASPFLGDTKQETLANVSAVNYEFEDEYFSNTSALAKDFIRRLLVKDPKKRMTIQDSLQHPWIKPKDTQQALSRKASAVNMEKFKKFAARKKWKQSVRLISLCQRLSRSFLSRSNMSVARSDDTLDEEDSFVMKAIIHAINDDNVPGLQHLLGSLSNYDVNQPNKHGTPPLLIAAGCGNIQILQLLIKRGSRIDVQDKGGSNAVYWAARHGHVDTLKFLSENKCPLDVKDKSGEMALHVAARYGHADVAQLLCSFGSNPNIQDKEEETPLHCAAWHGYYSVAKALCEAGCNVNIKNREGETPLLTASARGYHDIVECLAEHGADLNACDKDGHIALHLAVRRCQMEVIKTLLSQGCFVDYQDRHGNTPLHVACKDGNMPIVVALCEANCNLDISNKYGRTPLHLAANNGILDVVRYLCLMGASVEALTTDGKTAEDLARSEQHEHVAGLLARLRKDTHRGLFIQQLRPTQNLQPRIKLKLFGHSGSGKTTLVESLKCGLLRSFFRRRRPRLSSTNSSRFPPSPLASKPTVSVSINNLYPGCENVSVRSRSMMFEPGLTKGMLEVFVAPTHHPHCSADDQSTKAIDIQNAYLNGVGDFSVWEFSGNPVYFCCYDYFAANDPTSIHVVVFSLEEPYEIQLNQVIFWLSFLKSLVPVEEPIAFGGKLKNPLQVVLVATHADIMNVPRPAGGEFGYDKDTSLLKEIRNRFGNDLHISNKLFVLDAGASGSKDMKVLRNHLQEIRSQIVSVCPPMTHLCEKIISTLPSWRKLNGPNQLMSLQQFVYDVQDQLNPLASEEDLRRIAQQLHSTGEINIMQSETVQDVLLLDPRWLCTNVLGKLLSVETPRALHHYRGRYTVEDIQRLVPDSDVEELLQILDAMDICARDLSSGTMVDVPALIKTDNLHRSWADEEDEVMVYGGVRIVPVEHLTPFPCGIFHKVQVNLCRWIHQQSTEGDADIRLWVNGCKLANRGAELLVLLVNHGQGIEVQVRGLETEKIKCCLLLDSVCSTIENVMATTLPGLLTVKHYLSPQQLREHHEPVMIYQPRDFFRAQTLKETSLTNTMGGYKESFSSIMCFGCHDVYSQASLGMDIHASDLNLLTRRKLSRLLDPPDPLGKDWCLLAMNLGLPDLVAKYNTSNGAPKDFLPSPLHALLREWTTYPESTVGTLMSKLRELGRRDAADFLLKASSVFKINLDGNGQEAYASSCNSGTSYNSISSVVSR
Sequence of Phosphatidylinositol 4-kinase beta (Q9UBF8 whole entry): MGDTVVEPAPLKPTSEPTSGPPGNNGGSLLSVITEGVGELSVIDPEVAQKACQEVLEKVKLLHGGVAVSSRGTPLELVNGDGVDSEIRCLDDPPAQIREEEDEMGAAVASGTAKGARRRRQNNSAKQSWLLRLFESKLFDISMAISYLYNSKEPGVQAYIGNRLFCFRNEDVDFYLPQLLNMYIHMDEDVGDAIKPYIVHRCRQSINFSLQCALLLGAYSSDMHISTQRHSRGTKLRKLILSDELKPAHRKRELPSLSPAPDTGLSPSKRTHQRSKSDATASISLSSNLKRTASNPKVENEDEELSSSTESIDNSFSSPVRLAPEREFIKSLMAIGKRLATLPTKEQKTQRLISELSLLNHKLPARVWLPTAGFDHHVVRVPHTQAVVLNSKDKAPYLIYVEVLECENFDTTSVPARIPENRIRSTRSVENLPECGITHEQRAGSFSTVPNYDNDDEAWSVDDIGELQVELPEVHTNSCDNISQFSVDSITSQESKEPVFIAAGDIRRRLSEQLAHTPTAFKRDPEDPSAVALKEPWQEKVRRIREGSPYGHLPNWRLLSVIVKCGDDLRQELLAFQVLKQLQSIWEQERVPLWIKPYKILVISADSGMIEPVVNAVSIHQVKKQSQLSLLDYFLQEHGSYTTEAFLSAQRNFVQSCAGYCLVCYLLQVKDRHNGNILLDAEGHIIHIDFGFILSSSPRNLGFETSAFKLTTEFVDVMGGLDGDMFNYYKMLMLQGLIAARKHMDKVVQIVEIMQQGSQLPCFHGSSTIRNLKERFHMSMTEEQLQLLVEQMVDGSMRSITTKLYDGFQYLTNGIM
Sequence of RAC-beta serine/threonine-protein kinase (Homo sapiens) (P31751 whole entry): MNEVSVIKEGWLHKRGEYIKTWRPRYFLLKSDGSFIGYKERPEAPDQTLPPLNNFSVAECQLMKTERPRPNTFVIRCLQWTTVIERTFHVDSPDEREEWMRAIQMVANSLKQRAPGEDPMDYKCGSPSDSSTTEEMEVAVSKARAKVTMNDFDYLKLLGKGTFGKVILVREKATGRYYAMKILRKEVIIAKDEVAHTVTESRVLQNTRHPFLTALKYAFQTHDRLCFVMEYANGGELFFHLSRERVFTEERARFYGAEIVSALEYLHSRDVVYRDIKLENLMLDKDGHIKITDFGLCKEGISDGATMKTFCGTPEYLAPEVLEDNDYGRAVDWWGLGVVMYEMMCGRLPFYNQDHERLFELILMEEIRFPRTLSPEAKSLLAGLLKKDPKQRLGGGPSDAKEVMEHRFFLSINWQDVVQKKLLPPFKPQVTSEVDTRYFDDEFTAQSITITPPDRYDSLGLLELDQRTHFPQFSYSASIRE

`CC(C)(O)CNc1ncc(-c2ccnc(Nc3ccnc(Cl)c3)n2)c(CC2CC2)n1` was tested, and the Activity [1] was 133%, the Activity [2] was 110% and the Activity [3] was 106%. The Activity [4] was 103%, the Activity [5] was 96% and the inhibition [6] was “inactive”. The inhibition [7] was “inactive”, the inhibition [8] was “inactive” and the inhibition [9] was “inactive”. The inhibition [10] was “inactive”, the inhibition [11] was “inactive” and the inhibition [12] was “inactive”. For the same molecule, the inhibition [13] was “inactive”, the inhibition [14] was “inactive” and the inhibition [15] was “inactive”. For the same molecule, the inhibition [16] was “inactive”, the inhibition [17] was “inactive” and the inhibition [18] was “inactive”. For the same molecule, the inhibition [19] was “inactive”, the inhibition [20] was “inactive” and the inhibition [21] was “inactive”. The inhibition [22] was “inactive”, the inhibition [23] was “inactive” and the inhibition [24] was “inactive”. For the same molecule, the inhibition [25] was “inactive”, the pIC50 [26] was less than 5.00 and the pIC50 [27] was less than 5.00.
